Reference: patent US11628228B2, “99mTc-labeled isonitrile-containing glucose derivative and preparation method and use thereof” (Beijing Shihong Pharmaceutical Research Center, priority 2017, dated 2023)

Assays:
[1] = Determination of the lipid-water partition coefficient (n-octanol/PBS); format: physicochemical
Description: One hundred μL of the labeled substance solution (50 μCi) diluted with normal saline is placed into a 2 mL centrifuge tube, and then 800 μL of n-octanol and 700 μL of PBS are added to the centrifuge tube, which is subsequently covered with a cap. The centrifuge tube is vortexed for 3 minutes (2500 r/minute), allowed to stand until the solution is layered, and centrifuged in a centrifuge for 3 minutes (3000 r/minute). Three samples of the upper organic phase and three samples of the lower aqueous phase are taken, each 100 μL, and detected in a γ-counter for the radioactive counts of the organic and aqueous phases, respectively.

[2] = system: S180-bearing mice; experiment: Bio-distribution in tumor-bearing mice; format: in vivo; settings: for Blood uptake / Bone uptake / Heart uptake / Kidney uptake / Liver uptake / Lung uptake / Muscle uptake / Small intestine uptake / Spleen uptake / Stomach uptake / Tumor uptake / Tumor/blood ratio / Tumor/muscle ratio: S180-bearing mice, tail vein; for Tumor/liver ratio: tumor-bearing mice, 0.5 hour after injection
Description: The labeled solution (0.1 mL, 74 KBq) is injected into mice through the tail vein, and the injection time is recorded. Then the mice were killed by cervical dislocation at different time phases (30 minutes, 60 minutes, and 120 minutes), five mice for each time phase, and the organs of interest such as heart, liver, lung, kidney, spleen, stomach, muscle, blood and tumor are taken out after dissection, and measured with a γ-counter for the radioactive count of each organ. The uptake value of each organ is obtained by calculation based on the mass of the organ (with % ID/g as the unit).

[3] = system: tumor-bearing mice; settings: 0.5 hour after injection, literature; cited from earlier work
[4] = system: tumor-bearing mice; experiment: SPECT imaging in tumor-bearing mice; format: in vivo; settings: 0.2 mL, 700 μCi tail vein, imaging 1 hour later
Description: The prepared [^99mTc-(CN3DG)6]^+ or [^99mTc-(CN5DG)6]^+ (0.2 mL, 700 μCi) is injected into tumor-bearing mice through tail vein, and SPECT imaging is performed 1 hour later.

## O=C(CCCC[N+]#[C][99Tc-5]([C]#[N+]CCCCC(=O)NC1C(O)OC(CO)C(O)C1O)([C]#[N+]CCCCC(=O)NC1C(O)OC(CO)C(O)C1O)([C]#[N+]CCCCC(=O)NC1C(O)OC(CO)C(O)C1O)([C]#[N+]CCCCC(=O)NC1C(O)OC(CO)C(O)C1O)[C]#[N+]CCCCC(=O)NC1C(O)OC(CO)C(O)C1O)NC1C(O)OC(CO)C(O)C1O (centres unmarked) [[^99mTc-(CN4DG)6]^+]
[1]
  Log P (lipid-water partition coefficient): −3.84±0.06
[2]; 30 min
  Blood uptake: 1.80 ± 0.53 % ID/g
  Bone uptake: 0.73 ± 0.23 % ID/g
  Heart uptake: 0.70 ± 0.18 % ID/g
  Kidney uptake: 4.93 ± 1.11 % ID/g
  Liver uptake: 0.66 ± 0.13 % ID/g
  Lung uptake: 1.75 ± 0.49 % ID/g
  Muscle uptake: 0.57 ± 0.18 % ID/g
  Small intestine uptake: 1.06 ± 0.33 % ID/g
  Spleen uptake: 0.53 ± 0.12 % ID/g
  Stomach uptake: 0.81 ± 0.33 % ID/g
  Tumor uptake: 1.72 ± 0.30 % ID/g
  Tumor/blood ratio: 0.95
  Tumor/muscle ratio: 3.01
[2]; 60 min
  Blood uptake: 0.30 ± 0.13 % ID/g
  Bone uptake: 0.19 ± 0.04 % ID/g
  Heart uptake: 0.22 ± 0.08 % ID/g
  Kidney uptake: 1.57 ± 0.27 % ID/g
  Liver uptake: 0.28 ± 0.06 % ID/g
  Lung uptake: 0.40 ± 0.11 % ID/g
  Muscle uptake: 0.27 ± 0.17 % ID/g
  Small intestine uptake: 0.25 ± 0.11 % ID/g
  Spleen uptake: 0.21 ± 0.04 % ID/g
  Stomach uptake: 0.23 ± 0.07 % ID/g
  Tumor uptake: 0.88 ± 0.09 % ID/g
  Tumor/blood ratio: 2.93
  Tumor/muscle ratio: 3.26
[2]; 120 min
  Blood uptake: 0.03 ± 0.01 % ID/g
  Bone uptake: 0.13 ± 0.09 % ID/g
  Heart uptake: 0.10 ± 0.04 % ID/g
  Kidney uptake: 1.24 ± 0.53 % ID/g
  Liver uptake: 0.17 ± 0.03 % ID/g
  Lung uptake: 0.13 ± 0.02 % ID/g
  Muscle uptake: 0.15 ± 0.07 % ID/g
  Small intestine uptake: 0.36 ± 0.21 % ID/g
  Spleen uptake: 0.11 ± 0.02 % ID/g
  Stomach uptake: 0.08 ± 0.01 % ID/g
  Tumor uptake: 0.45 ± 0.17 % ID/g
  Tumor/blood ratio: 15.00
  Tumor/muscle ratio: 3.00
[2]
  Tumor/liver ratio: 2.60

## O=C(NC1C(O)O[C@H](CO)[C@@H](O)[C@@H]1O)C1C[S][Tc]23(=[O])[S]C[C@@H](C(=O)NC4C(O)O[C@H](CO)[C@@H](O)[C@@H]4O)[N]2CC[N]13 (some centres unmarked) [^99mTc-ECDG]
[3]
  Blood uptake: 1.61 ± 0.39 % ID/g
  Kidney uptake: 6.73 ± 1.84 % ID/g
  Liver uptake: 5.67 ± 2.08 % ID/g
  Muscle uptake: 0.26 ± 0.07 % ID/g
  Tumor uptake: 0.79 ± 0.16 % ID/g
  Tumor/blood ratio: 0.49
  Tumor/liver ratio: 0.14
  Tumor/muscle ratio: 3.04

## O=C(CCC[N+]#[C][99Tc-5]([C]#[N+]CCCC(=O)NC1C(O)OC(CO)C(O)C1O)([C]#[N+]CCCC(=O)NC1C(O)OC(CO)C(O)C1O)([C]#[N+]CCCC(=O)NC1C(O)OC(CO)C(O)C1O)([C]#[N+]CCCC(=O)NC1C(O)OC(CO)C(O)C1O)[C]#[N+]CCCC(=O)NC1C(O)OC(CO)C(O)C1O)NC1C(O)OC(CO)C(O)C1O (centres unmarked) [[^99mTc-(CN3DG)6]^+]
[1]
  Log P (lipid-water partition coefficient): −4.01±0.17
[2]; 30 min
  Blood uptake: 0.78 ± 0.16 % ID/g
  Bone uptake: 0.27 ± 0.05 % ID/g
  Heart uptake: 0.40 ± 0.07 % ID/g
  Kidney uptake: 2.17 ± 0.43 % ID/g
  Liver uptake: 0.39 ± 0.12 % ID/g
  Lung uptake: 0.78 ± 0.12 % ID/g
  Muscle uptake: 0.37 ± 0.08 % ID/g
  Small intestine uptake: 0.44 ± 0.08 % ID/g
  Spleen uptake: 0.28 ± 0.05 % ID/g
  Stomach uptake: 0.64 ± 0.25 % ID/g
  Tumor uptake: 1.49 ± 0.08 % ID/g
  Tumor/blood ratio: 1.91
  Tumor/muscle ratio: 4.03
[2]; 60 min
  Blood uptake: 0.12 ± 0.03 % ID/g
  Bone uptake: 0.15 ± 0.02 % ID/g
  Heart uptake: 0.22 ± 0.04 % ID/g
  Kidney uptake: 1.05 ± 0.21 % ID/g
  Liver uptake: 0.23 ± 0.03 % ID/g
  Lung uptake: 0.23 ± 0.04 % ID/g
  Muscle uptake: 0.17 ± 0.07 % ID/g
  Small intestine uptake: 0.21 ± 0.14 % ID/g
  Spleen uptake: 0.15 ± 0.03 % ID/g
  Stomach uptake: 0.25 ± 0.07 % ID/g
  Tumor uptake: 1.00 ± 0.17 % ID/g
  Tumor/blood ratio: 8.33
  Tumor/muscle ratio: 5.88
[2]; 120 min
  Blood uptake: 0.04 ± 0.02 % ID/g
  Bone uptake: 0.13 ± 0.04 % ID/g
  Heart uptake: 0.22 ± 0.05 % ID/g
  Kidney uptake: 1.23 ± 0.26 % ID/g
  Liver uptake: 0.28 ± 0.04 % ID/g
  Lung uptake: 0.17 ± 0.05 % ID/g
  Muscle uptake: 0.17 ± 0.05 % ID/g
  Small intestine uptake: 0.14 ± 0.06 % ID/g
  Spleen uptake: 0.17 ± 0.06 % ID/g
  Stomach uptake: 0.31 ± 0.06 % ID/g
  Tumor uptake: 0.68 ± 0.23 % ID/g
  Tumor/blood ratio: 17.00
  Tumor/muscle ratio: 4.00
[2]
  Tumor/liver ratio: 3.82
[4]
  SPECT imaging: aggregation at the tumor sites: evident aggregation at the tumor sites
  SPECT imaging: concentration in kidney: relatively high concentration in kidney
  SPECT imaging: uptake in other organs: relatively low

## O=C(CC[N+]#[C][99Tc-5]([C]#[N+]CCC(=O)NC1C(O)OC(CO)C(O)C1O)([C]#[N+]CCC(=O)NC1C(O)OC(CO)C(O)C1O)([C]#[N+]CCC(=O)NC1C(O)OC(CO)C(O)C1O)([C]#[N+]CCC(=O)NC1C(O)OC(CO)C(O)C1O)[C]#[N+]CCC(=O)NC1C(O)OC(CO)C(O)C1O)NC1C(O)OC(CO)C(O)C1O (centres unmarked) [[^99mTc-(CN2DG)6]^+]
[1]
  Log P (lipid-water partition coefficient): −4.26±0.12
[2]; 30 min
  Blood uptake: 0.94 ± 0.18 % ID/g
  Bone uptake: 0.32 ± 0.07 % ID/g
  Heart uptake: 0.34 ± 0.06 % ID/g
  Kidney uptake: 3.11 ± 1.04 % ID/g
  Liver uptake: 0.35 ± 0.06 % ID/g
  Lung uptake: 0.94 ± 0.18 % ID/g
  Muscle uptake: 0.27 ± 0.07 % ID/g
  Small intestine uptake: 0.44 ± 0.16 % ID/g
  Spleen uptake: 0.31 ± 0.09 % ID/g
  Stomach uptake: 0.38 ± 0.15 % ID/g
  Tumor uptake: 1.09 ± 0.23 % ID/g
  Tumor/blood ratio: 1.16
  Tumor/muscle ratio: 4.04
[2]; 60 min
  Blood uptake: 0.20 ± 0.05 % ID/g
  Bone uptake: 0.10 ± 0.02 % ID/g
  Heart uptake: 0.12 ± 0.02 % ID/g
  Kidney uptake: 1.17 ± 0.27 % ID/g
  Liver uptake: 0.18 ± 0.02 % ID/g
  Lung uptake: 0.26 ± 0.06 % ID/g
  Muscle uptake: 0.08 ± 0.00 % ID/g
  Small intestine uptake: 0.19 ± 0.03 % ID/g
  Spleen uptake: 0.13 ± 0.02 % ID/g
  Stomach uptake: 0.19 ± 0.07 % ID/g
  Tumor uptake: 0.50 ± 0.07 % ID/g
  Tumor/blood ratio: 2.78
  Tumor/muscle ratio: 6.25
[2]; 120 min
  Blood uptake: 0.01 ± 0.00 % ID/g
  Bone uptake: 0.05 ± 0.02 % ID/g
  Heart uptake: 0.05 ± 0.02 % ID/g
  Kidney uptake: 0.68 ± 0.11 % ID/g
  Liver uptake: 0.09 ± 0.01 % ID/g
  Lung uptake: 0.09 ± 0.04 % ID/g
  Muscle uptake: 0.04 ± 0.01 % ID/g
  Small intestine uptake: 0.12 ± 0.02 % ID/g
  Spleen uptake: 0.07 ± 0.01 % ID/g
  Stomach uptake: 0.15 ± 0.06 % ID/g
  Tumor uptake: 0.25 ± 0.05 % ID/g
  Tumor/blood ratio: 25.00
  Tumor/muscle ratio: 6.25
[2]
  Tumor/liver ratio: 3.11
